Data from patent EP4684782A1, “COSMETIC COMPOSITION FOR ANTIOXIDATION” (LG Chem, Ltd., priority 2023, dated 2025).
Several values for one entry are separate records, joined by “and”; a condition that tells them apart may be missing. Equal entries are not always repeated.

Columns and labels:
[1] = DPPH radical scavenging ability (antioxidant power), absorbance at 520 nm; assay type: biochemical; conditions: for Antioxidant power, Average: average of three measurements, 30 min; for Antioxidant power: single measurements (Once, Two times, Three times), 0.5 mM DPPH, room temperature, 30 minutes
Method: The DPPH radical expresses a dark purple color. The DPPH radical is reduced by the antioxidant effective ingredient, and the dark purple color is discolored. The performance of the antioxidant effective ingredient can be measured using such characteristics.
The 3HP aqueous solution obtained from Preparation Example 1 was prepared at five different concentrations (0 wt.%, 1 wt.%, 5 wt.%, 10 wt.%, 70 wt.%), 50 µℓ of each 3HP aqueous solution and 150 µℓ of methanol were dispensed into a 96-well plate and reacted at room temperature for 30 minutes. The absorbance (ODcontrol group, wavelength 520 nm) was repeatedly measured three times.
A DPPH aqueous solution containing 0.5 mM DPPH (free radical, 95%, Alfa Aesar) was prepared. 50 µℓ of methanol and 150 µℓ of the DPPH aqueous solution were dispensed into a 96-well plate and reacted at room temperature for 30 minutes. The absorbance (ODnegative control group, wavelength 520 nm) was repeatedly measured three times.
A DPPH aqueous solution containing 0.5 mM DPPH (free radical, 95%, Alfa Aesar) was prepared. The 3HP aqueous solution obtained from Preparation Example 1 was prepared at five different concentrations (0 wt.%, 1 wt.%, 5 wt.%, 10 wt.%, 70 wt.%), and 50 µℓ of each 3HP aqueous solution and 150 µℓ of the DPPH aqueous solution were dispensed into a 96-well plate and reacted at room temperature for 30 minutes. The absorbance (ODexperimental group, wavelength 520 nm) was repeatedly measured three times.
The absorbance at a wavelength of 520 nm was measured using a micro reader.
The DPPH radical scavenging ability (antioxidant power) of 3HP was calculated according to the following Equation 1, and the results are shown in Tables below. [formula]

human skin tissues = test: Skin tissue cell stability experiment (explant tissue culture, HE staining); assay type: cell-based; conditions: 3HP applied at concentrations of 1%, 5%, and 10%, tissues obtained 24 hours after application, FIG. 1
Method: The human skin tissues provided for research purposes (IRB No. 4-2023-0054; Institutional Review Board, Severance Medical Center, Yonsei University College of Medicine) was defatted, and washed several times with PBS (phosphate buffered saline; Lonza) to remove residual impurities. The skin tissues were prepared into a size of 1 cm × 1 cm for each test group, and the test composition was applied to the prepared skin tissues, and PBS was applied to the negative control. The skin tissues in which the absorption of the test composition has been completed were cultured in a special medium at 37°C, 5% CO2.
Tissues obtained 24 hours after application of the test composition were fixed with 10% formalin, and then paraffin blocks and paraffin-embedded slides were prepared. The deparaffinized tissues were stained for nuclei with hematoxylin (S3309; dako) solution, and then washed in running water. The cytoplasm was stained with eosin (318906; sigma) solution, and then the tissues were completely dehydrated through washing process and fixed using a mounting solution. The epidermis and papillary dermis of the fixed tissues were photographed at 400x magnification using an optical microscope (BX43F; OLYMPUS).

For `O=C(O)CCO` [Example 3HP, 3-hydroxypropionic acid], the “Antioxidant power, Average” value ([1]; 3HP treated concentration 1 %) was 0.904%, the Antioxidant power ([1]; 3HP treated concentration 1 %) was 0.850% and 1.042% and 0.819% and the “Antioxidant power, Average” value ([1]; 3HP treated concentration 5%) was 2.474%. The Antioxidant power ([1]; 3HP treated concentration 5%) was 2.452% and 2.552% and 2.419%, the “Antioxidant power, Average” value ([1]; 3HP treated concentration 10 %) was 5.175% and the Antioxidant power ([1]; 3HP treated concentration 10 %) was 5.209% and 5.205% and 5.111%. For the same molecule, the “Antioxidant power, Average” value ([1]; 3HP treated concentration 70 %) was 21.011%, the Antioxidant power ([1]; 3HP treated concentration 70 %) was 20.888% and 21.142% and 21.002% and the “DPPH radical scavenging ability” value ([1]; under the treatment concentrations tested (1, 5, 10, 70 wt.%), result in words) was “significant DPPH radical scavenging ability was exhibited”. For the same molecule, the “damage to the epidermis and dermis or separation between tissues” value (human skin tissues) was “no damage to the epidermis and dermis or separation between tissues were observed”.
